Experimental data as given in paper PMC12281424, “A Rac-specific competitive inhibitor of guanine nucleotide binding reduces metastasis in triple-negative breast cancer” (Cell Reports Medicine, 2025).
Where “and” joins values, the source holds several entries; their conditions need not be identical. Equal values may be shown once.

Experiments:
TA1537 = experiment: Bacterial cytotoxicity; assay type: cell-based
Description: Data S2. Bacterial cytotoxicity of A41.
Test Concentration %Effect Cytotoxicity (% of control) […]
Bacterial cytotoxicity (TA1537 - S9)

Monoamine Oxidase MAO-A = Monoamine Oxidase MAO-A (Homo sapiens, UniProt P21397); experiment: Safety screen; assay type: biochemical
Method: (§1) Blood cell counts, kinase profiler, safety screen, bacterial cytotoxicity, Ames, micronucleus assays were performed by the company Eurofins (France). The kinase profiler was performed by the company Eurofins (Discovery, Panlab and Cerep).

[1] = molecular target: Cholecystokinin CCK1 (CCKA) (Homo sapiens, UniProt P32238); experiment: Safety screen; assay type: binding
Method: (§2) Blood cell counts, kinase profiler, safety screen, bacterial cytotoxicity, Ames, micronucleus assays were performed by the company Eurofins (France).

WNK4(h) = WNK4(h) (Homo sapiens, UniProt Q96J92); experiment: Kinase Profiler; assay type: biochemical
Method: (§3) The kinase profiler was performed by the company Eurofins (Discovery, Panlab and Cerep).

SRPK2(h) = SRPK2(h) (Homo sapiens, UniProt P78362); experiment: Kinase Profiler; assay type: biochemical
Method: as §3

AMPKα1(h) = AMPKα1(h) (Homo sapiens, UniProt Q13131); experiment: Kinase Profiler; assay type: biochemical
Method: as §1

ErbB2(h) = ErbB2(h) (Homo sapiens, UniProt P04626); experiment: Kinase Profiler; assay type: biochemical
Method: as §3

RAC1 = RAC1 (Homo sapiens, UniProt P63000); experiment: Nucleotide exchange kinetics (mant-GTP/mant-GDP fluorescence); assay type: biochemical; design: Full-length RAC1 carrying a 6xHis tag in C-terminus was purified as previously described; 6xHis (C); made in house
Method: Figure 2 Identification of a new RAC1 inhibitor (A) Effect of A41 and NSC23766 on ruffle formation (white arrows) induced by EGF (10 ng/mL) in NIH 3T3 cells in serum-free culture medium (CTL). Inhibitors were added at indicated concentration 1 h prior to EGF stimulation. To assess cytoskeleton organization, cells were incubated with Alexa Fluor 488 phalloidin to visualize F-actin. Results shown are representative of 3 independent experiments. Corresponding concentration-response curves have been established by counting the percentages of cells with ruffles (scale bars: 10 μm). (B) Immunoblot analysis and associated quantification of RAC-GTP level and total RAC expression in NIH 3T3 cells stimulated by EGF (10 ng/mL, 5 min) and pre-incubated or not (−) with NSC23766, A41, or A415 at 10^−5 M for 1 h (∗∗∗p < 0.001 vs. controls without EGF stimulation, ^###p < 0.001 vs. controls with EGF stimulation) (N > 3). (C) Representative surface plasmon resonance (SPR) sensograms of binding of immobilized RAC1 with increasing concentrations of A41 with or without EDTA (20 mM) (N > 3). (D) Representative in vitro nucleotide exchange catalyzed by the DH-PH of TIAM (10 nM) measured by the binding of fluorescent mant-GTP (1 μM) to RAC1 (0.5 μM, preloaded with GDP) in the presence of indicated concentrations of A41 (out of N = 6). Dotted lines correspond to the experimental curves, and continuous lines represent the fit of experimental points. (E) Kobs and Kmax were determined in each condition (N = 6). (F) Predicted binding modes of A4 to the NSC23766-binding site (left) or the GDP-binding pocket of RAC1 (right). In the NSC23766-binding site of RAC1, the compound A4 (carbon atoms in blue) makes 2 hydrogen bonds (green dotted line) with Ser71 (S71) and 10 hydrophobic interactions (pink dotted line) with Ala3 (A3), Lys5 (K5), Val36 (V36), Trp56 (W56), Tyr64 (Y64), and Leu67 (L67) leading to a docking score of −6.03 kcal/mol. The GDP molecule is shown with fine line. The P loop is shown in yellow, the switch 1 in orange, and the switch 2 in green. In the GDP-binding pocket, A4 establishes 6 hydrogen bonds with Gly15 (G15), Lys16 (K16), Cys18 (C18), and Lys116 (K116), 1 carbon hydrogen bond with Lys116, and 9 hydrophobic interactions with Cys18, Ile33 (I33), Lys116, Leu119 (L119), and Leu160 (L160), resulting in a docking score of −10.32 kcal/mol.
Figure 3 Inhibitory mechanism of A41 (A–D) RAC1 activity was monitored by the change in mant-GTP/GDP fluorescence induced by its binding to or releasing from RAC1 (A–D). GDP-bound RAC1 (0.5 μM) was incubated with TRIO (10 nM) and the indicated concentrations of mant-GTP without and with A41 (5 μM) (A–C). Mant-GDP-bound RAC1 (0.5 μM) was incubated with TRIO (10 nM) and GTP (1 μM) without and with A41 (5 μM) (D). AU: arbitrary fluorescence units. All experiments were done in triplicate. Kmax and Kmin are expressed as mean ± SEM. ∗∗p < 0.01 and ∗∗∗p < 0.001 vs. TRIO. (E) Deconvoluted mass spectra generated from crude mass spectrum analyses to evaluate RAC1 photolabeling with [N3]-A41 by LC-HRMS on native protein. (F) Representative mass spectra of both labeled and unlabeled […] peptide during LC-HRMS analysis of RAC1 photolabeling with [N3]-A41 after trypsin digestion. (G) Predicted binding mode of A41 to the GDP-binding pocket of RAC1. Compound A41 (orange) makes 4 hydrogen bonds (green dotted line) with Lys16 (K16), Cys18 (C18), and Lys116 (K116), 2 carbon hydrogen bond (light green dotted line) with Val14 (V14) and Lys116 (K116), and 7 hydrophobic interactions (pink dotted line) with Cys18 (C18), Phe28 (F28), Lys116 (K116), Ala159 (A159), and Leu160 (L160). The P loop is shown in yellow, the switch 1 in orange, and the switch 2 in green.
Full-length RAC1 carrying a 6xHis tag in C-terminus was purified as previously described.[64] Full-length RAC2, RHOG, RHOA and CDC42 were purified as previously described.[64]^,[65] […]

Endothelin ETA = Endothelin ETA (Homo sapiens, UniProt P25101); experiment: Safety screen; assay type: binding
Endothelin ETA, sequence (P25101 21-427): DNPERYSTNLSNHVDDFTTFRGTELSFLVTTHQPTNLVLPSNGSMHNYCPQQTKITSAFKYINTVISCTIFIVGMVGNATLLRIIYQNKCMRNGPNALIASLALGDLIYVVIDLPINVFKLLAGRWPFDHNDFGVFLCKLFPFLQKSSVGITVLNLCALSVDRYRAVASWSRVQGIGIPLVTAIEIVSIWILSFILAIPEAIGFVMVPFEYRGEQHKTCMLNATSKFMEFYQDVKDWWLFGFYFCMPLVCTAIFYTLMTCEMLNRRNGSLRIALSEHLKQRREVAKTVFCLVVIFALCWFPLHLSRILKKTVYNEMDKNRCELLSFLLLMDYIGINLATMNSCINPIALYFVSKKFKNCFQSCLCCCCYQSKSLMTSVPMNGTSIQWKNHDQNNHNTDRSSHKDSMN
Method: as §2

Cholecystokinin CCK1 (CCKA), sequence (P32238 whole entry): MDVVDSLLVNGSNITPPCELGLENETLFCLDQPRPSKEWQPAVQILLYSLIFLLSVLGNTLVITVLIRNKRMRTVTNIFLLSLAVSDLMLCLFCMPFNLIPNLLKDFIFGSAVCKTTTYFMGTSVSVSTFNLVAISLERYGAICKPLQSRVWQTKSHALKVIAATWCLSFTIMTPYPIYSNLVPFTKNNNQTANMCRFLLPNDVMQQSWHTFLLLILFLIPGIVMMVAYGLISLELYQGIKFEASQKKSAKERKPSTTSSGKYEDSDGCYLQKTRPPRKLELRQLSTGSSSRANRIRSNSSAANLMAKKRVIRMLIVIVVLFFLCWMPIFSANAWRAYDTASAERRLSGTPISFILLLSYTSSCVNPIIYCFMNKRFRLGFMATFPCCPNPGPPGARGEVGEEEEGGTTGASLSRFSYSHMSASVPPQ
WNK4(h), sequence (Q96J92 whole entry): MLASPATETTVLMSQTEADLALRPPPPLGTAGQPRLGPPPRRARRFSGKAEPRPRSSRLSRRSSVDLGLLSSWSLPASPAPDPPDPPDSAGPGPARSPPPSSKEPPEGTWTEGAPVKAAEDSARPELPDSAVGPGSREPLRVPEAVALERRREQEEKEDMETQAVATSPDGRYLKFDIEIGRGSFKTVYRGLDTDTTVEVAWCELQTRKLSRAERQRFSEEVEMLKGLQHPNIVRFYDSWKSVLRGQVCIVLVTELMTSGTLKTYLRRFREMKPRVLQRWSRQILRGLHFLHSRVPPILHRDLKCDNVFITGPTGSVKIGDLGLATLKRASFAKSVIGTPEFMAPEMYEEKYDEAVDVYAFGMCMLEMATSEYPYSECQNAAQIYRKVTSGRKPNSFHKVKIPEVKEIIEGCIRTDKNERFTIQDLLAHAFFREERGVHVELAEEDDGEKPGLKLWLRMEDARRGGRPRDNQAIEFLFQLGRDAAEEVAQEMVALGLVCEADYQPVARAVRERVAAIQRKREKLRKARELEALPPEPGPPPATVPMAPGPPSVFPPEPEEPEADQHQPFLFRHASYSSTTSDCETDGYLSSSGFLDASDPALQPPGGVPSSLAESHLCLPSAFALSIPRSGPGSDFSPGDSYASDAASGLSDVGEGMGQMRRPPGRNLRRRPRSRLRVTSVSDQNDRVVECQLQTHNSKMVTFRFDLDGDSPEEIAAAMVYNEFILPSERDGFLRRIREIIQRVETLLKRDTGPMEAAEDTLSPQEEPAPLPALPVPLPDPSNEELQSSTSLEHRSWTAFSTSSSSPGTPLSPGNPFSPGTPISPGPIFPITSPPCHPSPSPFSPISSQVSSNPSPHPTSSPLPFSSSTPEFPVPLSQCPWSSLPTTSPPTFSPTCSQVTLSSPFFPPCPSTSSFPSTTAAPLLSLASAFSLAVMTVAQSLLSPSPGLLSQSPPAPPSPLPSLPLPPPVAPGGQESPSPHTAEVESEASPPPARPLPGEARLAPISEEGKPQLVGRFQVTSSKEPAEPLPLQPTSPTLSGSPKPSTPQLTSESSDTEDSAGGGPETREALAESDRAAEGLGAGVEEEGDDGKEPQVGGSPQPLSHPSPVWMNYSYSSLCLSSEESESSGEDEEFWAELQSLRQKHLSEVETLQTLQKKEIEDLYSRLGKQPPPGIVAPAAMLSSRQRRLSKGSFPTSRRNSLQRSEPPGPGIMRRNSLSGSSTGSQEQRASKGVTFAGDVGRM
ErbB2(h), sequence (P04626 23-1255): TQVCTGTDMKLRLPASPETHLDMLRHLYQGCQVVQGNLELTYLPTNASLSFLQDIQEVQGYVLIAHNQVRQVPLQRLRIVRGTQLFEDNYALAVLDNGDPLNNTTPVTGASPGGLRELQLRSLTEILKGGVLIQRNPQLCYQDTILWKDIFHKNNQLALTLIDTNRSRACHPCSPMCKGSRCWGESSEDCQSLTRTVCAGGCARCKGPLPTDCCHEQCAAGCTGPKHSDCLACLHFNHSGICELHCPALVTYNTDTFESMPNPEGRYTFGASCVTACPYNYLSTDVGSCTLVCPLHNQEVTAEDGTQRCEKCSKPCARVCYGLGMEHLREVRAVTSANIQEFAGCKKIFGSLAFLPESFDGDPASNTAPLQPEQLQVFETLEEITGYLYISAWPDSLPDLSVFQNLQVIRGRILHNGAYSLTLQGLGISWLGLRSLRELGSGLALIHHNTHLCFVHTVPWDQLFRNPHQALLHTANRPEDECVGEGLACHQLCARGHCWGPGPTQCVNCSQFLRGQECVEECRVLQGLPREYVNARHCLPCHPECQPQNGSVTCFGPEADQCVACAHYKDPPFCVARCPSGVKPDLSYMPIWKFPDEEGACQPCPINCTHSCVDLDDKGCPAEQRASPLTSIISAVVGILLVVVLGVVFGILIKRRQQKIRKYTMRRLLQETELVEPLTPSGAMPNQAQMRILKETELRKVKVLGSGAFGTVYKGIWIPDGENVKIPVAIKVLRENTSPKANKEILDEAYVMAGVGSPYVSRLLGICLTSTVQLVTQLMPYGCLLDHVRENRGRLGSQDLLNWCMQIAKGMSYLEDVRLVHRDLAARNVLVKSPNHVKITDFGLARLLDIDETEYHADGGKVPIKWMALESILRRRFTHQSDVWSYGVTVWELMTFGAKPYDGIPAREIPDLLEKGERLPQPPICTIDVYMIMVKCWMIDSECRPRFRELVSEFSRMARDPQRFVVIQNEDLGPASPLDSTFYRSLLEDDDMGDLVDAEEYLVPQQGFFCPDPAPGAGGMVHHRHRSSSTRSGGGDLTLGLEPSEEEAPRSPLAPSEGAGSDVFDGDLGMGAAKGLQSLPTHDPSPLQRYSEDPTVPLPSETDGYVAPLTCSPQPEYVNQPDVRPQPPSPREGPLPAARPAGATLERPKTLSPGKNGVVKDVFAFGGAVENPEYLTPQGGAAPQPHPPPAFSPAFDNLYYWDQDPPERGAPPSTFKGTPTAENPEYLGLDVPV
AMPKα1(h), sequence (Q13131 whole entry): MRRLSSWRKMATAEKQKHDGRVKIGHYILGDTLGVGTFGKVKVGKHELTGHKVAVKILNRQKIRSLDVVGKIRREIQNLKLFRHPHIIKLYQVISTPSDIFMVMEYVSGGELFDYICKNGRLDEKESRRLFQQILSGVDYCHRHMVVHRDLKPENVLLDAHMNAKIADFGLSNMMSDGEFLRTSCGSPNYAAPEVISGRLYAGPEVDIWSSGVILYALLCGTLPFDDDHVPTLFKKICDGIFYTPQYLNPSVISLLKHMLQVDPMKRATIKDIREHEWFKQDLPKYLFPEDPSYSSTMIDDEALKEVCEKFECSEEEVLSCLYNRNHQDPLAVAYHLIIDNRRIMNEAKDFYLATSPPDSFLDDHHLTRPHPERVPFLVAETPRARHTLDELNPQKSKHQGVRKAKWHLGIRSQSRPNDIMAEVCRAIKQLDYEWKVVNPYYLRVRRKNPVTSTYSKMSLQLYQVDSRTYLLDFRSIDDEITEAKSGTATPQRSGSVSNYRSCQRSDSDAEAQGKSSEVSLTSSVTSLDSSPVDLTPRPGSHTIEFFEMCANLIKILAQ
AMPKα1(h), sequence (Q9Y478 whole entry partner): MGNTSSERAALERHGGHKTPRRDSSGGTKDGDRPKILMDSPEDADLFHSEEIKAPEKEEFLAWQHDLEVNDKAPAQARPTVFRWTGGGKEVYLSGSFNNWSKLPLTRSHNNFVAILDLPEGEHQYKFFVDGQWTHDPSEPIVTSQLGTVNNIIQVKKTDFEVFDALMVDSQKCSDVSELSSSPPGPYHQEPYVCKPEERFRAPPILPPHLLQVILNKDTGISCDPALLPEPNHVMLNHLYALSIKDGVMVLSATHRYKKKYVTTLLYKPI
AMPKα1(h), sequence (P54619 whole entry partner): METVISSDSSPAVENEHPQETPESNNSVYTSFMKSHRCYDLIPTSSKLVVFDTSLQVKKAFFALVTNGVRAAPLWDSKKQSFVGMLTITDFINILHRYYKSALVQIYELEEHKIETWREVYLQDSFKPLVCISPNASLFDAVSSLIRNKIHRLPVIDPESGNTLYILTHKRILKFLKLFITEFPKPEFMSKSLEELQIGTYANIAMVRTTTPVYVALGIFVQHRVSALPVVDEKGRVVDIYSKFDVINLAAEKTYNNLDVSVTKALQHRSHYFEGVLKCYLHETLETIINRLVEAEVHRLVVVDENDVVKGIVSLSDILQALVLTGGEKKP
Monoamine Oxidase MAO-A, sequence (P21397 whole entry): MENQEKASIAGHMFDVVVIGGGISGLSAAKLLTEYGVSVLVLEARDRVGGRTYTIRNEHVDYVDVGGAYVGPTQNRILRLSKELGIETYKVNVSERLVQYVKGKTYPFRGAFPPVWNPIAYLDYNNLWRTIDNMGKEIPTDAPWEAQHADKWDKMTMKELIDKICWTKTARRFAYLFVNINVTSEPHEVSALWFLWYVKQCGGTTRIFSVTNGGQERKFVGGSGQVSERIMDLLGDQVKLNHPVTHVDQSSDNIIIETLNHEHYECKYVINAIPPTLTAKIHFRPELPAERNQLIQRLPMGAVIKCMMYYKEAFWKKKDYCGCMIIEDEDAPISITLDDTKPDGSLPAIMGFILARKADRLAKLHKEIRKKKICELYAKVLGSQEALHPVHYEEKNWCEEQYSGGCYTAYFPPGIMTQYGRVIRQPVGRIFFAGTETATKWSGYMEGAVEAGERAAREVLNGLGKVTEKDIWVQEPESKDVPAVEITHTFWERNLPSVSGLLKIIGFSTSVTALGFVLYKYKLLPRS

## COc1ccc(OC)c(NS(=O)(=O)c2ccc(NC(=O)CCSc3ccc(C)cc3)cc2)c1 [Compound A41]
TA1537; - S9, 1.0E-04 M
  %Effect, single replicates (1st, 2nd, 3rd): 222.5% and 214.4% and 229.2%
  Cytotoxicity (% of control), Mean %Effect: 222.0%
TA1537; - S9, 1.0E-05 M
  %Effect, single replicates (1st, 2nd, 3rd): 109.9% and 108.6% and 111.2%
  Cytotoxicity (% of control), Mean %Effect: 109.9%
TA1537; - S9, 1.2E-06 M
  %Effect, single replicates (1st, 2nd, 3rd): 109.9% and 108.6% and 101.9%
  Cytotoxicity (% of control), Mean %Effect: 106.8%
TA1537; - S9, 2.5E-05 M
  %Effect, single replicates (1st, 2nd, 3rd): 128.7% and 115.3% and 112.6%
  Cytotoxicity (% of control), Mean %Effect: 118.8%
TA1537; - S9, 2.5E-06 M
  %Effect, single replicates (1st, 2nd, 3rd): 111.2% and 104.5% and 99.2%
  Cytotoxicity (% of control), Mean %Effect: 105.0%
TA1537; - S9, 5.0E-05 M
  %Effect, single replicates (1st, 2nd, 3rd): 162.2% and 150.1% and 148.8%
  Cytotoxicity (% of control), Mean %Effect: 153.7%
TA1537; - S9, 5.0E-06 M
  %Effect, single replicates (1st, 2nd, 3rd): 116.6% and 111.2% and 100.5%
  Cytotoxicity (% of control), Mean %Effect: 109.4%
TA1537; - S9, 6.0E-07 M
  %Effect, single replicates (1st, 2nd, 3rd): 107.2% (2×) and 115.3%
  Cytotoxicity (% of control), Mean %Effect: 109.9%
Monoamine Oxidase MAO-A
  % inh.: 10%
[1]
  % inh.: 31%
WNK4(h)
  Activity(%): 107%
SRPK2(h)
  Activity(%): 96%
AMPKα1(h)
  Activity(%): 102%
ErbB2(h)
  Activity(%): 116%
RAC1
  Inhibition of RAC1 activity (nucleotide exchange assay): 46%
RAC1; A41 5 μM, mant-GDP-bound RAC1, GTP 1 μM
  TRIO-induced GDP dissociation: no effect
RAC1; A41 5 μM, mant-GTP 5 μM
  inhibitory effect on TRIO-induced nucleotide exchange: abolished
RAC1; A41 5 μM, mant-GTP increased from 1 to 2.5 μM
  inhibitory effect on TRIO-induced nucleotide exchange: strongly decreased
RAC1; TIAM DH-PH 10 nM, mant-GTP 1 μM, concentration-dependent
  plateau (Kmax) of nucleotide exchange: decreased the plateau
RAC1; no GEF
  spontaneous activity of RAC1: without affecting
Endothelin ETA
  % inh.: -8%
